Here are results for eight molecules from patent publication US11034725B2, “Compositions and methods for treating cardiovascular disease” (Genentech, Inc., priority 2016, dated 2021).

Entries after “also recorded” stand apart in the source; their conditions may differ. Square brackets hold non-standard residues; d marks the D form. Ends that are not written are not given here. Peptide text beside a SMILES is read from it. * marks the point of attachment. hArg = N=C(N)NCCCC[C@H](N)C(=O)O; Pentanoyl = CCCCC(=O)*

Data set [1] has as its target T1, FXIa (Homo sapiens, UniProt P03951).
T1 construct: purchased Haematologic Technologies
Briefly: LC-MS determination of FXIa-mediated cleavage of groove-binding peptides. Format: in vitro ADME. The method, then:
Peptide cleavage was determined by using the calculated molecular weights and by measuring the area under the curves.

In data set [2] the target is T2, PCSK9 (Homo sapiens, UniProt Q8NBP7). Nature of the data set: PCSK9/EGF(A) TR-FRET binding assay. The conditions noted are these: TR-FRET, Example 7; read-out: PCSK9/EGF(A) IC50. A general note: TR-FRET usually uses a lanthanide donor and a delayed reading to cut background.
In data set [3] the target is T3, PCSK9Δhelix (Homo sapiens, UniProt Q8NBP7).
T3 construct: Human PCSK9 construct M1-Q692 with an engineered TEV site (residue deletion Y166, R167); made in house; host or cells: CHO
Briefly: PCSK9Δhelix/Ab20 TR-FRET binding assay.

Data set [4] relates to His-EGF(A)-Fc. Briefly: His-EGF(A)-Fc TR-FRET counterscreen. The conditions noted are these: counterscreen, Example 7.
For data set [5], the target named is T4, PCSK9-R167A:R215A:R218A (PCSK9-AAA) (Homo sapiens, UniProt Q8NBP7, R167A/R215A/R218A).
T4 construct: made in house; host or cells: CHO (transient)
Briefly: FXIa cleavage assay of the P′ helix of PCSK9-AAA. Format: biochemical. The conditions noted are these: immunoblot with anti-N-terminal peptide antibody. The method, then: The PCSK9-AAA mutant (2.6 μM) was incubated with 50 nM FXIa (Haematologic Technologies) in Tris buffer (50 mM Tris, 150 mM NaCl, 4 mM CaCl2, pH 8.0) at room temperature for the indicated time periods. […] After SDS-PAGE of the samples, proteins were transferred to a nitrocellulose membrane using iBlot (Invitrogen). Proteins were then probed with a polyclonal rabbit antibody (1:3000) raised against the PCSK9 N-terminal peptide (^153[…]^168 (SEQ ID NO: 5)), followed with HRP-conjugated donkey anti-rabbit antibody (1:5000, GE Healthcare) using iBind (Invitrogen). PCSK9 signals were detected by ECL (GE Healthcare) and visualized by autoradiography.
Proteins were then probed with a polyclonal rabbit antibody (1:3000) raised against the PCSK9 N-terminal peptide (^153[…]^168 (SEQ ID NO: 5)), followed with HRP-conjugated donkey anti-rabbit antibody (1:5000, GE Healthcare) using iBind (Invitrogen). PCSK9 signals were detected by ECL (GE Healthcare) and visualized by autoradiography.
A general note: In western blotting, separated proteins are transferred to a membrane and probed.

The target of data set [6] is T5, LDLR ectodomain (Homo sapiens, UniProt P01130).
T5 construct: purchased R & D Systems
Briefly: Biolayer interferometry binding of PCSK9 mutants to LDLR ectodomain. The source says: In further experiments the previously described PCSK9 mutant PCSK9-R215A:R218A (=PCSK9-AA) (Lipari et al. J Biol Chem. 2012 Dec. 21; 287(52):43482-91), in which the “furin cleavage loop” residues had been changed to Alanine, was used in order to prevent protease cleavage at the susceptible residues R215 and R218. […] Therefore, to direct the FXIa cleavage specifically to the P′ alpha helix residue R160 the triple mutant PCSK9-R167A:R215A:R218A (=PCSK9-AAA) was produced. The binding affinities of PCSK9-AAA and PCSK9-AA to the LDLR ectodomain (R & D Systems) were determined by biolayer interferometry as described (Lipari et al. J Biol Chem. 2012 Dec. 21; 287(52):43482-91).
(In BLI a coated tip is dipped into the sample, and binding shifts an interference pattern.)

Data set [7] addresses T2, PCSK9. Briefly: Phage competition ELISA. Format: binding. As for the experimental part:
The sequences of selected clones were fused to the N-terminus of M13 major coat protein (p8) using Kunkel mutagenesis method (Kunkel et al., Methods Enzymol 154, 367-82). The resulting construct was transformed to E. Coli. XL1 blue, single colony was grown in 1 mL 2YT supplemented with 50 μg/mL carbenicillin, 10 μg/mL Tetracycline and M13 KO7 helper phage at 37° C. for 2 h, Kanamycin was added to final concentration of 25 μg/mL, growth was continued at 37° C. for 6 h. The culture was transferred to 30 mL 2YT supplemented with 50 μg/mL carbenicillin and 25 μg/mL kanamycin and grown at 37° C. overnight. The next day, the phage was harvested and purified using the standard protocol (Tonikian et al. Nat Protoc. 2007; 2(6):1368-86). The serially diluted phage solution was applied to the biotinylated PCSK9 and biotinylated PCSK9Δhelix that had been immobilized for 15 min on a 384-well MaxiSorp ImmunoPlate previously coated with 5 μg/mL NeutrAvidin and blocked with Block buffer. The plate was incubated at 4° C. for 1 h, washed 10 times with PT buffer (PBS, 0.05% Tween® 20). The bound phage was detected with anti-M13-HRP and the ELISA signal was read at OD450 nm. The background was ELISA signal that the phage directly bound to NeutrAvidin-coated plate. The data was plotted and the curve fitted with KaleidaGraph. Sub-saturating phage concentration that gave 80% of maximum binding signal was determined by the binding curve.
IC50 measurements were performed by mixing a fixed sub-saturating concentration of peptide-displaying phage with a serial dilution of synthetic peptides in PBT buffer. The mixture was added to plates coated with PCSK9 and PCSK9Δhelix and incubated for 1 h at room temperature. The plates were then washed 10 times with PBT buffer and the bound phage was detected by anti-M13-HRP. The data was plotted, curve fitted and IC50 derived by use of KaleidaGraph. All measurements were repeated 3 times independently.

Data set [8] deals with T2, PCSK9. Nature of the data set: PCSK9 | IC50(uM). The source says: Where the first naming reader finds the target: head: PCSK9 | IC50(uM)
The target in data set [9] is T3, PCSK9Δhelix. Nature of the data set: PCSK9Δhelix | IC50(uM). The source says: Where the first naming reader finds the target: head: PCSK9Δhelix | IC50(uM)
The test system of data set [10] is contaminating protease. Briefly: PCSK9 cleavage under crystallization conditions and inhibition by serine protease inhibitors. Format: biochemical. The conditions noted are these: serpins 150 μM, Aprotinin 1.5 mM, 9 days, room temperature. As for the experimental part: After SDS-PAGE of the samples, the 60 kDa band comprising the PCSK9 catalytic domain and Cys-rich domain (CRD) was analyzed by N-terminal sequencing and the results reported in Table 2.
Samples were analyzed by SDS-PAGE and transferred to a nitrocellulose membrane using iBlot (Invitrogen). Proteins were then probed with a polyclonal rabbit antibody (1:3000) raised against the PCSK9 N-terminal peptide (^153[…]^168 (SEQ ID NO: 5)), followed with HRP-conjugated donkey anti-rabbit antibody (1:5000, GE Healthcare) using iBind (Invitrogen). PCSK9 signals were detected by ECL (GE Healthcare) and visualized by autoradiography. The polyclonal rabbit antibody against the PCSK9 N-terminal peptide ^153[…]^168 (SEQ ID NO: 5) was generated by immunizing rabbits with the synthesized peptide […] (SEQ ID NO: 285), which contained an extra Cys residue at the N-terminus for conjugation to KLH. The polyclonal antibody IgG was purified from rabbit serum using affinity chromatography with resin-immobilized peptide […] (SEQ ID NO: 285) (YenZym Antibodies, LLC, San Francisco, Calif.).

For the molecule `CCCCC(=O)N[C@@H](Cc1c[nH]c2ccccc12)C(=O)N[C@@H](CC(N)=O)C(=O)N[C@@H](CC(C)C)C(=O)N[C@H](C(=O)N[C@@H](CCCNC(=N)N)C(=O)N[C@H](C(=O)NCC(=O)N[C@@H](CC(C)C)C(=O)N[C@H](C(=O)N[C@@H](CCCNC(=N)N)C(N)=O)[C@@H](C)O)[C@@H](C)CC)C(C)C` [Compound 112] (Pentanoyl-WNLVRIGLTR-NH2), the “peptide cleaved by FXIa” value in data set [1] (1 h, with K9-AAA and 50 nM FXIa) was 34%; in [1] (6 h, with K9-AAA and 50 nM FXIa) it was 76%. In addition, the metabolised at 1 h in [1] (isolated protease FXIa (50 nM) with K9-AAA, 1 h, with K9-AAA and 50 nM FXIa, read-out: peptide cleaved by FXIa) amounted to 34%. In data set [1] (isolated protease FXIa (50 nM) with K9-AAA, 6 h, with K9-AAA and 50 nM FXIa, read-out: peptide cleaved by FXIa), the metabolised at 6 h is 76%. Also, the IC50 in data set [2] was over 50000 nM; in data set [3] (TR-FRET, Example 7, read-out: PCSK9Δhelix/Ab20 IC50), 7500 nM; in data set [4], over 50000 nM. For the same molecule, the “effect on FXIa-mediated cleavage of the P′ helix of PCSK9-AAA” value in data set [5] is “able to increase the FXIa-mediated cleavage”.

For `CCCCC(=O)N[C@@H](Cc1c[nH]c2ccccc12)C(=O)N[C@@H](CC(N)=O)C(=O)N[C@@H](CC(C)C)C(=O)N[C@H](C(=O)N[C@@H](CCCCNC(=N)N)C(=O)N[C@H](C(=O)NCC(=O)N[C@@H](CC(C)C)C(=O)N[C@H](C(=O)N[C@@H](CCCNC(=N)N)C(N)=O)[C@@H](C)O)[C@@H](C)CC)C(C)C` [Compound 118, n-BuC(O)-WNLV(homoR)IGLTR-NH2] (Pentanoyl-WNLV[hArg]IGLTR-NH2), the “peptide cleavage by FXIa” value in [1] (up to 6 h) is listed as “remained intact; also recorded: No cleavage”. For the same molecule, the IC50 in data set [2] and in [4] was over 50000 nM in each case. Moreover, in data set [3] (versus Compound 112), the “increase of inhibition in PCSK9Δhelix/Ab20 assay by homo-arginine replacement” value is given as 5 fold. The “effect on FXIa-mediated cleavage of the P′ helix of PCSK9-AAA” value in data set [5] is listed as “higher degree; also recorded: able to increase the FXIa-mediated cleavage; also recorded: stronger effect”.

The Kd is a measure of binding affinity in units of concentration. Higher therefore signals lower affinity. Take “PCSK9-AA: PCSK9 mutant in which the furin cleavage loop residues R215 and R218 had been changed to Alanine”: in [6], the Kd amounted to 260 nM.

Turning to “SGDLMPWNLVRIGLLR-NH2 [Compound K9gvpep7]”, the “competition with binding of phage-displayed Pep2-8 to PCSK9” value in data set [7] is given as “did not compete”. Besides, the IC50 in [8] came out at 635 ± 107 nM; in data set [9], 914 ± 28.3 nM.

On to “SGGSMPWNLERIFALH-NH2 [Compound K9gvpep8]”, for which, in data set [7], the “competition with binding of phage-displayed Pep2-8 to PCSK9” value is listed as “did not compete”. The figures for the IC50 in [8] and in [9] were 1700 ± 166 nM and 2150 ± 215 nM, respectively.

Take “alpha1-antitrypsin: more elastase-specific serpin”: in data set [10], the “inhibition of P′ helix cleavage of the Fab33:PCSK9 complex by contaminating protease” value is “did not inhibit cleavage”.

Regarding antithrombin III, the “inhibition of P′ helix cleavage of the Fab33:PCSK9 complex by contaminating protease” value in [10] is “cleavage was prevented; also recorded: able to prevent proteolytic cleavage”.

B1: PCSK9-AAA: triple mutant PCSK9-R167A:R215A:R218A (protein, UniProt Q8NBP7 153-692, looked up, variant R167A R215A R218A)
Proprotein convertase …: SIPWNLERITPPRYAADEYQPPDGGSLVEVYLLDTSIQSDHREIEGRVMVTDFENVPEEDGTAFHAQASKCDSHGTHLAGVVSGRDAGVAKGASMRSLRVLNCQGKGTVSGTLIGLEFIRKSQLVQPVGPLVVLLPLAGGYSRVLNAACQRLARAGVVLVTAAGNFRDDACLYSPASAPEVITVGATNAQDQPVTLGTLGTNFGRCVDLFAPGEDIIGASSDCSTCFVSQSGTSQAAAHVAGIAAMMLSAEPELTLAELRQRLIHFSAKDVINEAWFPEDQRVLTPNLVAALPPSTHGAGWQLFCRTVWSAHSGPTRMATAVARCAPDEELLSCSSFSRSGKRRGERMEAQGGKLVCRAHNAFGGEGVYAIARCCLLPQANCSVHTAPPAEASMGTRVHCHQQGHVLTGCSSHWEVEDLGTHKPPVLRPRGQPNQCVGHREASIHASCCHAPGLECKVKEHGIPAPQEQVTVACEEGWTLTGCSALPGTSHVLGAYAVDNTCVVRSRDVSTTGSTSEGAVTAVAICCRSRHLAQASQELQ
On to B1, for which the Kd in data set [6] stood at 214 nM.
